The values that follow come from PMC12951562, “SH2scan: Mapping SH2 Domain-Ligand Binding Selectivity for Inhibitors and Degraders” (Journal of Medicinal Chemistry, 2026).

For orientation: Kd means the equilibrium constant for the complex coming apart. The low end stands for tighter binding, the high end for weaker binding.

Where two headings read alike, the source gives them in different places.

Common to all, as to assay: biochemical
Assay type in all cases: binding

The target of one assay is T1, STAP2 (Homo sapiens, UniProt Q9UGK3).
T1 construct: made in house; host or cells: HEK293 (transient transfection), unpurified extract
T1 sequence (Q9UGK3 1-403): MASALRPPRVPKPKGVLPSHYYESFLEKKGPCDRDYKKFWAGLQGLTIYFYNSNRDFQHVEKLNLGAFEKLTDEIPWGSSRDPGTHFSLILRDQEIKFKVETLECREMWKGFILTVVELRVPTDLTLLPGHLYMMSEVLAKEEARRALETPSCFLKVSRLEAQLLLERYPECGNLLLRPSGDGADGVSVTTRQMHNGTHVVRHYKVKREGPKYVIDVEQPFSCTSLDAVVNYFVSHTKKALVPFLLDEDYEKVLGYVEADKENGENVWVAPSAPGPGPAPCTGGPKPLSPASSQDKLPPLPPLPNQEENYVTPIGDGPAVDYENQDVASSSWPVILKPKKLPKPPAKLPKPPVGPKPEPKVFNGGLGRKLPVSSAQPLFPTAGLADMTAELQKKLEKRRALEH
Conditions: read-out: percent of DMSO vehicle control.

In another assay the target is T2, DAPP1 (Homo sapiens, UniProt Q9UN19).
T2 construct: the DNA-tagged SH2 domain concentrations used in this study were <0.1 nM; made in house; host or cells: HEK293 (transient transfection; unpurified extract)
T2 sequence (Q9UN19 35-129 limits assumed): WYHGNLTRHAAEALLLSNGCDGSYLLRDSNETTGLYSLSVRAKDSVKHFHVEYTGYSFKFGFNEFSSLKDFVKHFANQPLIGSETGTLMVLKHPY
Conditions: read-out: percent of DMSO vehicle control.

The next assay concerns the target T3, GRAP (Homo sapiens, UniProt Q13588).
T3 construct: the DNA-tagged SH2 domain concentrations used in this study were <0.1 nM; made in house; host or cells: HEK293 (transient transfection; unpurified extract)

A further assay concerns the target T4, RASA1(SH2dom.C-term.) (Homo sapiens, UniProt P20936).
T4 construct: SH2dom.C-term. denotes SH2 domain closest to C-terminus of protein; made in house; host or cells: HEK293 (transient transfection, unpurified extract)
T4 sequence (P20936 351-441 limits assumed): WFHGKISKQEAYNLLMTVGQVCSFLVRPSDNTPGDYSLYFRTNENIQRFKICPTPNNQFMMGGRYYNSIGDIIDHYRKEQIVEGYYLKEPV
Conditions: read-out: percent of DMSO vehicle control.

Another assay has as its target T5, TNS1 (Homo sapiens, UniProt Q9HBL0).
T5 construct: made in house; host or cells: HEK293 (transient transfection), unpurified extract

The target of a further assay is T6, LCK (Homo sapiens, UniProt P06239).
T6 construct: the DNA-tagged SH2 domain concentrations used in this study were <0.1 nM; made in house; host or cells: HEK293 (transient transfection, unpurified extract)
Conditions: read-out: percent of DMSO vehicle control.

For the next assay, the target named is T7, SLAP2 (Homo sapiens, UniProt Q9H6Q3).
T7 construct: made in house; host or cells: HEK293 (transient transfection), unpurified extract
T7 sequence (Q9H6Q3 1-261): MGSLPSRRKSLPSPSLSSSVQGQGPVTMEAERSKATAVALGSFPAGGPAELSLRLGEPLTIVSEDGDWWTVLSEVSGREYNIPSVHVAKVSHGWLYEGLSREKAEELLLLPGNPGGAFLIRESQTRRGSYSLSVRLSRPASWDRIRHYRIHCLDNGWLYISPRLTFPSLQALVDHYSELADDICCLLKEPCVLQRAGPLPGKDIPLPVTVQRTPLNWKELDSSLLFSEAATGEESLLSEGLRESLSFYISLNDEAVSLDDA
Conditions: read-out: percent of DMSO vehicle control.

The next assay has as its target T8, SHC3 (Homo sapiens, UniProt Q92529).
T8 construct: made in house; host or cells: HEK293 (transient transfection), unpurified extract
T8 sequence (Q92529 1-594): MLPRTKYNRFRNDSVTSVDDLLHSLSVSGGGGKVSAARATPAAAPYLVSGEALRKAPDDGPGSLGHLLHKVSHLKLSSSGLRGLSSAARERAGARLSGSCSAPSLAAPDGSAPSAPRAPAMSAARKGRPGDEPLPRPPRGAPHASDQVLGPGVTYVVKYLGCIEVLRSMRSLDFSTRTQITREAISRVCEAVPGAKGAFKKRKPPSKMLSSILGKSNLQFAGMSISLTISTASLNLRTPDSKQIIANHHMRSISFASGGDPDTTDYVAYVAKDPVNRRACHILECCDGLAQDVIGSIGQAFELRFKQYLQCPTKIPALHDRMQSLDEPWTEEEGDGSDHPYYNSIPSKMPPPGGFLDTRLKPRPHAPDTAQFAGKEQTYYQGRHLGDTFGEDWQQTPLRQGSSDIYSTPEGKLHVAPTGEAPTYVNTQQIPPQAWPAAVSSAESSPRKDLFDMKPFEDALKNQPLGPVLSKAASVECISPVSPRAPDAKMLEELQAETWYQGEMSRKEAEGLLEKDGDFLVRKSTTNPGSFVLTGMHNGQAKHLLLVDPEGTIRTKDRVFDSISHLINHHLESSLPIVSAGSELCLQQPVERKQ
Conditions: for remaining activity at 10 µM: read-out: percent of DMSO vehicle control.

In the next assay the target is T9, STAT4 (Homo sapiens, UniProt Q14765).
T9 construct: made in house; host or cells: HEK293 (transient transfection), unpurified extract
T9 sequence (Q14765 1-748): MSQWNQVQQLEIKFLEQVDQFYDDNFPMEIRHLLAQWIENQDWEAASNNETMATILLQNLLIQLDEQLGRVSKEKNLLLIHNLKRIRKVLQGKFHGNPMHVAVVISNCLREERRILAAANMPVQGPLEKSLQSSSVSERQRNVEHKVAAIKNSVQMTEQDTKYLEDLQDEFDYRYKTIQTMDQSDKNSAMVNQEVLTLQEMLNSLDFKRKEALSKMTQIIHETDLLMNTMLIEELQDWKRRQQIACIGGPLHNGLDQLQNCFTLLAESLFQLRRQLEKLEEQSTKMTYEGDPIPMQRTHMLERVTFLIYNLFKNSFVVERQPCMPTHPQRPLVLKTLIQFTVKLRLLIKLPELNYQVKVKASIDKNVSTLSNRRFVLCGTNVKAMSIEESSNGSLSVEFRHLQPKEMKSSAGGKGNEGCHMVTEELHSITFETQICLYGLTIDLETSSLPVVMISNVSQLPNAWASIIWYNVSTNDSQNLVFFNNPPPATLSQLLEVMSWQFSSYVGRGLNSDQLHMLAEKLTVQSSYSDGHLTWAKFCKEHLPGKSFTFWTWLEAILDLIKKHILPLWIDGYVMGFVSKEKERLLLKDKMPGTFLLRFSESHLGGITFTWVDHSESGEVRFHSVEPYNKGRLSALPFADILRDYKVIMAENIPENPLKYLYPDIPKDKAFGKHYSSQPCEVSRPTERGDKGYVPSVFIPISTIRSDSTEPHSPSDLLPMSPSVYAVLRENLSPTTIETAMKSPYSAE
Conditions: for percent of DMSO vehicle control: primary screen, 10 μM.

In the next assay the target is T10, SH2B (SH2B1) (Homo sapiens, UniProt Q9NRF2).
T10 construct: made in house; host or cells: HEK293 (transient transfection), unpurified extract
Conditions: read-out: percent of DMSO vehicle control.

The target in another assay is T11, FER (Homo sapiens, UniProt P16591).
T11 construct: the DNA-tagged SH2 domain concentrations used in this study were <0.1 nM; made in house; host or cells: HEK293 (transient transfection; unpurified extract)
Conditions: read-out: percent of DMSO vehicle control.

Where [1] appears, read: read-out: percent of DMSO vehicle control.
[2] abbreviates: primary screen, 10 μM, read-out: percent of DMSO vehicle control.

T11 sequence (P16591 460-550 limits assumed): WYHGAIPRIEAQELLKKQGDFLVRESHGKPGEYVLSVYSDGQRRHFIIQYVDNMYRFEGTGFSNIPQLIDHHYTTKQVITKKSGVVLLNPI
T3 sequence (Q13588 60-154 limits assumed): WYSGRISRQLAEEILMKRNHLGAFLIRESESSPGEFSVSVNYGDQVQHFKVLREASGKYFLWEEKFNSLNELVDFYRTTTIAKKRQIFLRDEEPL
T6 sequence (P06239 127-224 limits assumed): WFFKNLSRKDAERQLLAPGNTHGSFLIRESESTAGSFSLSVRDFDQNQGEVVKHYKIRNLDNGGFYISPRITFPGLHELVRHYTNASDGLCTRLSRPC
T5 sequence (Q9HBL0 whole entry): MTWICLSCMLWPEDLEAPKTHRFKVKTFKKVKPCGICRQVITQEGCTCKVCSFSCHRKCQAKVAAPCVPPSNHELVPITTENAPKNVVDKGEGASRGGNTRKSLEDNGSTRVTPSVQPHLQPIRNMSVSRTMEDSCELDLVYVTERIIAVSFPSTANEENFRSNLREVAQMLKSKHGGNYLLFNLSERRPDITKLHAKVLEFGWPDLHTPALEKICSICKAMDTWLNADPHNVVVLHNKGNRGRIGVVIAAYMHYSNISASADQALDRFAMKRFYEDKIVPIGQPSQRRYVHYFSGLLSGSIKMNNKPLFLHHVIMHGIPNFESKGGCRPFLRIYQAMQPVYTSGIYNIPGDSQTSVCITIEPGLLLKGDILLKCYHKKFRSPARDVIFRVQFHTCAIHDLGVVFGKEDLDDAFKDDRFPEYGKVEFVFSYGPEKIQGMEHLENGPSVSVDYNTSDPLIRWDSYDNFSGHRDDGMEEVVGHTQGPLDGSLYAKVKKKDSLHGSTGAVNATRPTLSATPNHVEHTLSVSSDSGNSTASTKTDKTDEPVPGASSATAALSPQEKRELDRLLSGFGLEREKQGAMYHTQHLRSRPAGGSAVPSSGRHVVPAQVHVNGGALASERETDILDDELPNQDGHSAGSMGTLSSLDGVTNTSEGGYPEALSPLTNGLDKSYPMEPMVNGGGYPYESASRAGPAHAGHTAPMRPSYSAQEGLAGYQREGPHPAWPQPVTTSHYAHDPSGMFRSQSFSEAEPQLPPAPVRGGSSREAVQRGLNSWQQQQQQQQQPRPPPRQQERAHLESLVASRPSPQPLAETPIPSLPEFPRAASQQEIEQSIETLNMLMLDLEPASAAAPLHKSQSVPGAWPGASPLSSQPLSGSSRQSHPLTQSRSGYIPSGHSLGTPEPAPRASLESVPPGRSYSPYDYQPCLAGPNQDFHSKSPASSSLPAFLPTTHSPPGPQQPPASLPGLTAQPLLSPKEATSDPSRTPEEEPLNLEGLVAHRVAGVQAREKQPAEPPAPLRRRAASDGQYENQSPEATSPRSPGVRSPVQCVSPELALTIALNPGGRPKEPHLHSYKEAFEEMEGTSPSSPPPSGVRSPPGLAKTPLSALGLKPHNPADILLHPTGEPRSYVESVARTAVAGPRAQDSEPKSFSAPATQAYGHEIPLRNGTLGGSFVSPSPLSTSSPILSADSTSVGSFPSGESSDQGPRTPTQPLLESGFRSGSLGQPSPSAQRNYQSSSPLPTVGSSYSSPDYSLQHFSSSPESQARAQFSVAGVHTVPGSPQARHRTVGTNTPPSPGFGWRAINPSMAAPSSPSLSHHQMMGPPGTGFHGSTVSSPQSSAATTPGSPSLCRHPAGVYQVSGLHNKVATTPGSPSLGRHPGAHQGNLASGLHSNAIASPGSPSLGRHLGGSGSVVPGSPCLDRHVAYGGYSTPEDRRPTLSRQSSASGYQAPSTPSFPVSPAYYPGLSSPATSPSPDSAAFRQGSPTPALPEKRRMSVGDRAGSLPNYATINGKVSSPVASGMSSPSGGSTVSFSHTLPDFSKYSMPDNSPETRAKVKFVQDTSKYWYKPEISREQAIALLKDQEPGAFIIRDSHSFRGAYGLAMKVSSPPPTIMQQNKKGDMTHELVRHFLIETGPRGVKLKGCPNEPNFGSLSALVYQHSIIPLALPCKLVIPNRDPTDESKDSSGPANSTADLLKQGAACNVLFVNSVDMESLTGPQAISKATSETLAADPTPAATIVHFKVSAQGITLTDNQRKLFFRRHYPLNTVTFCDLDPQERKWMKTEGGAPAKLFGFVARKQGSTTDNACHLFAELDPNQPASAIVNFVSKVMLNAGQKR

Consider `CC(=O)N1CC[C@H]2CC[C@@H](C(=O)N[C@@H](CCC(N)=O)C(=O)NC(c3ccccc3)c3ccccc3)N2C(=O)[C@@H](NC(=O)c2cc3cc(C(F)(F)P(=O)(O)O)ccc3[nH]2)C1` [SI-109], for which the percent of DMSO vehicle control at 10 µM turned out to be 130% at STAP2; 149% at DAPP1; 141% on GRAP (setting [1]); 152% on TNS1 (setting [1]); 127% at LCK; 107% on FER. Besides, the remaining activity at 10 µM at RASA1(SH2dom.C-term.) amounted to 118%; on SLAP2 it was 121%; on SHC3 it was 122%; at SH2B (SH2B1) it was 149%. This compound registered a dissociation constant Kd on STAT4 of 240 ± 106 nM. Besides, the “percent of DMSO vehicle control” value at STAT4 amounted to 7.3±0.1%.
For `O=C(CCl)Nc1cccc(CNC(=O)[C@H](Cc2ccc(OP(=O)(O)O)cc2)NC(=O)Cc2ccc(F)cc2)c1` [MN551], the remaining activity at 10 µM on STAP2 (primary screen, 10 μM) turned out to be 143%; on DAPP1 (primary screen, 10 μM), 81.2%; on GRAP (setting [2]) it was 48.7%; on RASA1(SH2dom.C-term.) (primary screen, 10 μM), 107%; at TNS1 (setting [2]), 134%; at LCK (primary screen, 10 μM), 98.7 ± 0.5%. The remaining activity at 10 µM on SLAP2 (primary screen, 10 μM) is 81.6 ± 2.1%; on SHC3 (primary screen, 10 μM) it was 91.2 ± 1.9%; at SH2B (SH2B1) (primary screen, 10 μM), 105%; on FER (primary screen, 10 μM), 1.1 ± 0.2%. Further, the KD entry at STAT4 (dose-response) is listed as “No Hit”. Further, on STAT4, the “percent of DMSO vehicle control” value came out at 22±0.8%.
On to `NC(=O)CC[C@H](NC(=O)[C@@H]1CC[C@@H]2CCN(C(=O)CCCCCC#Cc3cccc4c3CN(C3CCC(=O)NC3=O)C4=O)C[C@H](NC(=O)c3cc4cc(C(F)(F)P(=O)(O)O)ccc4[nH]3)C(=O)N21)C(=O)NC(c1ccccc1)c1ccccc1` (some centres unmarked) [SD-36], for which the percent of DMSO vehicle control at 10 µM at STAP2 stood at 36.1 ± 5.4%; at DAPP1 it was 126%; at GRAP (setting [1]), 89.2 ± 4.6%; on TNS1 (setting [1]), 112.9 ± 1%; at LCK it was 97.3 ± 3.9%; at FER it was 74.4 ± 18.6%. Further, the remaining activity at 10 µM on RASA1(SH2dom.C-term.) came out at 86.6 ± 9.6%; on SLAP2, 95.7 ± 9.9%; at SHC3, 74.5 ± 0.8%; at SH2B (SH2B1), 68.4 ± 0.4%. On STAT4 (dose-response), this compound yielded a Kd of 120 ± 110 nM. Moreover, the “percent of DMSO vehicle control” value on STAT4 turned out to be 1.1±0.2%.
With `CC(=O)N[C@@H](Cc1ccc(CP(=O)(O)O)cc1)C(=O)NC1(C(=O)N[C@@H](CC(N)=O)C(=O)NCCCc2c(O)ccc3ccccc23)CCCCC1` [CGP78850], the percent of DMSO vehicle control at 10 µM at STAP2 was found to be 86 ± 7.4%; at DAPP1 it was 136 ± 2.8%; at GRAP (setting [1]), 0%; on TNS1 (setting [1]), 16.4 ± 0.3%; on LCK, 46 ± 3.7%; at FER, 136 ± 7.5%. The equilibrium dissociation constant (Kd) on GRAP was 3.3 nM; on TNS1, 408 nM; on SHC3, 1800 ± 240 nM. Besides, the remaining activity at 10 µM on RASA1(SH2dom.C-term.) was 131 ± 42.7%; at SLAP2, 91.4 ± 15.3%; at SHC3 it was 29.2 ± 2.8%; on SH2B (SH2B1) it was 125 ± 1.9%. In addition, the “percent of DMSO vehicle control” value on STAT4 is listed as 91.4±14.0%.
